Assay results as given in patent US11976062B2, “Benzisoxazole compound” (OSAKA UNIVERSITY, priority 2018, dated 2024).

Molecular target: T1, TRPC6 channel (Homo sapiens, UniProt Q9Y210)
T1 construct: expressed in transfected cells; host or cells: HEK293
T1 sequence (Q9Y210 1-931): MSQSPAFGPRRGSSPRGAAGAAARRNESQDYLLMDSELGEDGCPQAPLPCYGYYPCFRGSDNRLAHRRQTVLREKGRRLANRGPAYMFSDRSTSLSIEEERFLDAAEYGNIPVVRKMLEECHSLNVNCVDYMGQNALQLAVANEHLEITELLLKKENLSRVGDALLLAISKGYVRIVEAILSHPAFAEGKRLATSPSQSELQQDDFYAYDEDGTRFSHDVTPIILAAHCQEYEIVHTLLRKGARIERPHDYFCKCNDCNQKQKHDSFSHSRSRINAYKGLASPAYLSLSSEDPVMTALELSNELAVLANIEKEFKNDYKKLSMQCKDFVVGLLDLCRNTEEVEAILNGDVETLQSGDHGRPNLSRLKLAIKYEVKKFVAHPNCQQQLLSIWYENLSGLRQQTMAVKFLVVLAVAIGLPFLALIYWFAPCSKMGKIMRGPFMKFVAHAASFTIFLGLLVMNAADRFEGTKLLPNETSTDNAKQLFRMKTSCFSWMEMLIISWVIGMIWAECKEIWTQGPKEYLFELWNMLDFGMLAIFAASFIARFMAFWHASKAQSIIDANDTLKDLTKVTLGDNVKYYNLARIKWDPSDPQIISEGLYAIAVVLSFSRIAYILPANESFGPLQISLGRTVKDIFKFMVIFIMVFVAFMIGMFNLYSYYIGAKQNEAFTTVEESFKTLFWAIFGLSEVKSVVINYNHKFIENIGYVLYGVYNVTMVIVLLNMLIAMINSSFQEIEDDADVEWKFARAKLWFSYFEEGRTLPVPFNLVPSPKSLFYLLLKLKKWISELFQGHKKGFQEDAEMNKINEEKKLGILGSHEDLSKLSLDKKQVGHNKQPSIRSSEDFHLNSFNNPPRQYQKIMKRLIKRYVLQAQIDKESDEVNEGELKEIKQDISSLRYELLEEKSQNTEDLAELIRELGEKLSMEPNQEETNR
Assay: Calcium assay using HEK293 cells transiently expressing TRPC6 channel, carbachol activation (Fura-2)
Format: cell-based
Method: A TRPC6 gene was introduced into HEK293 cells (cells derived from human fetal kidney) by lipofection, and the TRPC6 channel was expressed on the cell membrane. Specifically, the plasmid DNA of TRPC6 (pCI-neo; Promega Corporation) was introduced into HEK293 cells using a lipofection reagent, and then cultured at 37° C. for 24 to 48 hours to express the TRPC6 channel on the cell membrane. In the same manner, HEK293 cells into which the TRPC3 gene was introduced were cultured, and the TRPC3 channel was expressed on the cell membrane.
The cultured cells were peeled off with trypsin and seeded on a cover glass again, followed by culturing the cells at 37° C. for 3 hours again. A Fura-2 AM calcium indicator was added to the medium, and the cells were cultured at 37° C. for 30 minutes to allow the cells to incorporate the indicator. For the extracellular solution, a Ca^2+-containing solution and a Ca^2+-free solution were prepared. • Ca^2+-containing solution: 2 mM CaCl2, 132 mM NaCl, 4 mM KCl, 1 mM MgCl2, 5 mM glucose, 5 mM HEPES (pH 7.4) • Ca^2+-free solution: 132 mM NaCl, 4 mM KCl, 1 mM MgCl2, 5 mM glucose, 5 mM HEPES (pH 7.4)
After the cells were added to the Ca^2+-containing solution, the following operation was performed while the fluorescence intensity (510 nm) of Fura-2 was measured at room temperature with an ARGUS CA-20 (Hamamatsu Photonics K.K.) over time. • 0 minutes: TRPC3-expressing cells or TRPC6-expressing cells are placed in a measurement chamber that contains the Ca^2+-containing solution. • After 30 seconds: The Ca^2+-containing solution is replaced with the Ca^2+-free solution. • After 1 minute: A predetermined amount of a test compound is added to the Ca^2+-free solution. • After 3 minutes: Carbachol (100 μM) is added to the Ca^2+-free solution. • After 7 minutes: The Ca^2+-free solution is replaced with the Ca^2+-containing solution that contains a test compound and carbachol […]. • After 15 minutes: Measurement is ended.
Compound 011 was used as the test compound, and the amount of the test compound added was 0.01, 0.1, 0.5, 1.0, 5.0, 10, or 50 μM. For the control, 0.1% DMSO was used in place of the test compound. Carbachol (cch) is a TRPC-channel-activating reagent. Applying carbachol to cells opens the TRPC channel and allows a large amount of Ca^2+ in the extracellular solution to flow into the cells. Fura-2 AM has high cell membrane permeability due to the presence of an AM group (acetoxymethyl group), and is thus easily incorporated into the cells. The AM group is hydrolyzed in the cells to become Fura-2. Thus, Fura-2 can form a chelate with Ca^2+ and is also unlikely to leak out of the cells due to the loss of the AM group.
In the same manner as in Test Example 1, the maximum calcium ion concentration was measured after 7 minutes from the start of measurement (i.e., after replacement with the Ca^2+-containing solution) by using TRPC6-expressing cells prepared in the same manner as in Test Example 1, except that 10 μM of Pyr 4 and 10 μM of compound 011, 031, 041, or 191 (test compound) were used. The average value of calcium ion concentrations up to 30 seconds after the start of measurement (the initial value of calcium ion concentration) was subtracted from the maximum calcium ion concentration, and the calculated value was determined to be the amount of increase in calcium ions. FIG. 3 illustrates the results.
The calcium ion concentration was measured in the same manner as in Test Example 2, except that 10 μM of compound 011, 361, 362(E), 362(Z), 371, 372(Z), 381, or 401 (test compound) was used, and Pyr 4 was not used, thereby determining the amount of increase in calcium ions. Table 2 illustrates the amount of increase in calcium ions for each test compound relative to the amount of increase in calcium ions in the control (DMSO) taken as 100%.

## O=C(O)c1cnc(N2CCN(c3noc4cccc(C(F)(F)F)c34)CC2)c(Cl)c1 [Compound 011, 5-chloro-6-(4-(4-(trifluoromethyl)benzo[d]isoxazol-3-yl)piperazin-1-yl) nicotinic acid]
10 μM test compound, carbachol
  suppression of TRPC6 channel activation (decrease in calcium ion influx, FIG. 3): activation of the TRPC6 channel was suppressed
10 μM test compound, carbachol, TRPC6-expressing cells
  amount of increase in calcium ions relative to control (DMSO) taken as 100%: 21%
TRPC6, FIG. 1, from about 100 nM, control (DMSO) about 280 nM
  Ca2+ concentration in the cells reached after addition of carbachol: about 140 nM
TRPC6-expressing HEK293 cells, carbachol 100 μM, from concentration-response curves, read-out: IC50 for inhibition of the TRPC6 channel
  IC50: 4.6 µM
